In brackets after ≈: the same amount, converted by molar mass. Several values for one entry are separate records, joined by “and”; a condition that tells them apart may be missing. Equal entries are not always repeated.
Key:
Assay type in all cases: cell-based
[1] = system: HHV8 cell line, TPA-induced BCBL-1 cells; assay: Kaposi's Sarcoma (HHV8) in vitro test, DNA copy number
Experimental: The DNA copy number and the toxicity value were measured and compared with Cidofovir.

Curvularia lunata = assay: Anti-fungal activity (NCCLS M-27A based), Curvularia lunata
Experimental: It was active against cryptococcus neoformans and curvularai lunata. The cidal activity for the C. neoformans is high enough that it is clear […] against this yeast. This test was conducted using a method based upon NCCLS reference method M-27A published in 1997. Solvent, medium and growth controls were set-up with the tests. Once these were read to validate the test performance, the QC fungi were read to insure they had expected results. These steps validated the test system. DMSO was used as a drug-chemical solvent. […] The 90% cut-off is necessary for azoles, which are static and not cidal. The FMC or cidal level was determined by sub-culturing a sample from each tube showing no growth.

HIV-1 cell line, CEMIIIB = assay: Long term in vitro study, CEMIIIB, reverse transcriptase
Experimental: A microtiter-based reveres transcriptase (RT) reaction is utilized (Buckheit et al (1991) AIDS Research and Human Retroviruses 7:295-302). Tritiated thymidine triphosphate (NEN)(TTP) is resuspended in distilled water at 5 Ci/ml. Poly rA and oligo dT are prepared as a stock solution which is kept at −20° C. The RT reaction buffer is prepared fresh on a daily basis and consists of 125 μl 1M EGTA, 125 μl water, 125 μl Triton X-100, 50 μl Tris (pH 7.4), 50 μl 1 MDDT, and 40 μl 1M MgCl2. These three solutions are mixed together in a ratio of 1 part TTP, 2.5 parts poly rA:oligo dT, 2.5 parts reaction buffer and 4 parts distilled water. Ten microliters of this reaction mixture is placed in a round bottom microtiter place and 15 μl of virus containing supernatant is added and mixed. The plate is incubated at 37° C. for 60 minutes. Following reaction, the reaction volume is spotted onto filter mats, washed 6 times for 5 minutes each in a 5% sodium phosphate buffer, 2 times for 1 minute each in distilled water, 2 times for 1 minute each in 70% ethanol, and then dried. The dried filter mat is placed in a plastic sample bag, Betaplate scintillation fluid is added and the bag is heat sealed. Incorporated radioactivity is quantified utilizing a Wallac Microbeta scintillation counter.
Acute infection of most established human cell lines with HIV-1 results in the eventual establishment of a constitutive virus-producing chronically infected cell line. The cells can be passaged for long periods of time in culture without loss of virus production. These cells may be utilized to evaluate the effects of anti-HIV compounds on syncytium formation or to evaluate the effects of anti-HIV compounds on levels of virus production from these cells. […] Each of the cells contains an integrated HIV genome or provirus. Chronically infected CEM, H9 and U937 cell lines have been prepared and cultured by Southern Research Institute, Frederick Md. and are available from them.
CEM-SS cells chronically infected with HIV isolate, for example SKI (CEM-SKI) are cultured in RPMI1640 tissue culture medium supplemented with 10% fetal bovine serum and antibiotics. […] CEM-SKI or other infected cells with no added drug are used as the control cells. Cells are allowed to grow to a density of approximately 1×10^6 cells/ml and are then passaged at a 1:10 dilution. […] The drug concentration in the flask is then increased two-fold and the cells maintained as above.
The cell populations contain integrated copies of the HIV genome and constitutively produce HIV at relatively high levels or are latently infected and only produce virus after stimulation with phorbol esters, tumor necrosis factor or IL6 (U1 and ACH2). Reductions in virus products were observed when quantifying supernatant reverse transcriptase activity,
A long term in vitro study of 2-(2-thienyl)-imidazolo [4,5-b]pyridine against an HIV-1 cell line, CEMIIIB was conducted at three different levels. The results with CEMIIIB cells were reported at weekly intervals. The CEMIIIB is a viral strain of the CEMSS cell line and is a chronic HIV cell line.

Question: For `c1csc(-c2nc3cccnc3[nH]2)c1` [2-(2-thienyl)-imidazolo [4,5-b]pyridine], which “DNA Copy Number, % virus control” value ([1]; 0.64 μM) is on record?
Answer: 97.2%

Question: And the “DNA Copy Number, average” value ([1]; 0.64 μM)?
Answer: 14122.1 per 3 μl

Question: What about the “DNA Copy Number, samples 1-3” value ([1]; 0.64 μM) of the same molecule?
Answer: 16524.7 per 3 μl and 16524.9 per 3 μl and 12316.8 per 3 μl

Question: What about the “DNA Copy Number, % virus control” value ([1]; 2 μM) of the same molecule?
Answer: 94.0%

Question: What about the “DNA Copy Number, average” value ([1]; 2 μM) of the same molecule?
Answer: 13653.8 per 3 μl

Question: What about the “DNA Copy Number, samples 1-3” value ([1]; 2 μM) of the same molecule?
Answer: 13427.5 per 3 μl and 11819.4 per 3 μl and 15714.5 per 3 μl

Question: What about the “DNA Copy Number, % virus control” value ([1]; 6.4 μM) of the same molecule?
Answer: 95.5%

Question: What about the “DNA Copy Number, average” value ([1]; 6.4 μM) of the same molecule?
Answer: 13876.4 per 3 μl

Question: And the “DNA Copy Number, samples 1-3” value ([1]; 6.4 μM)?
Answer: 11795.6 per 3 μl and 15297.5 per 3 μl and 14536.1 per 3 μl

Question: What about the “DNA Copy Number, % virus control” value ([1]; 20 μM) of the same molecule?
Answer: 77.9%

Question: And the “DNA Copy Number, average” value ([1]; 20 μM)?
Answer: 11321.8 per 3 μl

Question: What about the “DNA Copy Number, % virus control” value ([1]; 64 μM) of the same molecule?
Answer: 2.9%

Question: And the “DNA Copy Number, average” value ([1]; 64 μM)?
Answer: 427.3 per 3 μl

Question: And the “DNA Copy Number, % virus control” value ([1]; 200 μM)?
Answer: 13.9%

Question: What about the “DNA Copy Number, average” value ([1]; 200 μM) of the same molecule?
Answer: 2020.8 per 3 μl

Question: And the “DNA Copy Number, samples 1-3” value ([1]; 200 μM)?
Answer: 1680.4 per 3 μl and 2041.2 per 3 μl and 2340.8 per 3 μl

Question: What about the IC50 ([1]; Human gammaherpesvirus 8, BCBL1) of the same molecule?
Answer: 36.4 µM

Question: And the MIC (Curvularia lunata; Curvularia lunata, growth inhibited or reduced at least 90%)?
Answer: 0.03 µg/mL (≈ 0.149 µM)

Question: What about the “activity against Curvularia lunata (in words)” value (Curvularia lunata; in vitro) of the same molecule?
Answer: active

Question: What about the reverse transcriptase data (HIV-1 cell line, CEMIIIB; 7 μg/ml, day 4) of the same molecule?
Answer: 4631

Question: What about the reverse transcriptase data (HIV-1 cell line, CEMIIIB; 7 μg/ml, day 11) of the same molecule?
Answer: 4222

Question: What about the reverse transcriptase data (HIV-1 cell line, CEMIIIB; 7 μg/ml, day 18) of the same molecule?
Answer: 843

Question: What about the reverse transcriptase data (HIV-1 cell line, CEMIIIB; 7 μg/ml, day 25) of the same molecule?
Answer: 1052

Question: And the reverse transcriptase data (HIV-1 cell line, CEMIIIB; 7 μg/ml, day 32)?
Answer: 1456

Question: What about the reverse transcriptase data (HIV-1 cell line, CEMIIIB; 7 μg/ml, day 39) of the same molecule?
Answer: 4298

Question: And the reverse transcriptase data (HIV-1 cell line, CEMIIIB; 7 μg/ml, day 46)?
Answer: 1643

Question: What about the reverse transcriptase data (HIV-1 cell line, CEMIIIB; 7 μg/ml, day 53) of the same molecule?
Answer: 1458

Question: And the reverse transcriptase data (HIV-1 cell line, CEMIIIB; 7 μg/ml, day 60)?
Answer: 1409

Question: What about the reverse transcriptase data (HIV-1 cell line, CEMIIIB; 7 μg/ml, day 67) of the same molecule?
Answer: 1903

Question: What about the reverse transcriptase data (HIV-1 cell line, CEMIIIB; 7 μg/ml, day 71) of the same molecule?
Answer: 1832

Question: What about the reverse transcriptase data (HIV-1 cell line, CEMIIIB; 7 μg/ml, day 74) of the same molecule?
Answer: 1980

Question: And the reverse transcriptase data (HIV-1 cell line, CEMIIIB; 7 μg/ml, day 88)?
Answer: 1520

Question: And the reverse transcriptase data (HIV-1 cell line, CEMIIIB; 7 μg/ml, day 95)?
Answer: 1367

Question: What about the reverse transcriptase data (HIV-1 cell line, CEMIIIB; 7 μg/ml, day 102) of the same molecule?
Answer: 1497

Question: What about the reverse transcriptase data (HIV-1 cell line, CEMIIIB; 7 μg/ml, day 109) of the same molecule?
Answer: 1165

Question: And the reverse transcriptase data (HIV-1 cell line, CEMIIIB; 15 μg/ml, day 4)?
Answer: 5622

Question: And the reverse transcriptase data (HIV-1 cell line, CEMIIIB; 15 μg/ml, day 11)?
Answer: 1828

Question: What about the reverse transcriptase data (HIV-1 cell line, CEMIIIB; 15 μg/ml, day 18) of the same molecule?
Answer: 683

Question: And the reverse transcriptase data (HIV-1 cell line, CEMIIIB; 15 μg/ml, day 25)?
Answer: 741

Question: And the reverse transcriptase data (HIV-1 cell line, CEMIIIB; 15 μg/ml, day 32)?
Answer: 1005

Question: What about the reverse transcriptase data (HIV-1 cell line, CEMIIIB; 15 μg/ml, day 39) of the same molecule?
Answer: 948

Question: And the reverse transcriptase data (HIV-1 cell line, CEMIIIB; 15 μg/ml, day 46)?
Answer: 1361

Question: And the reverse transcriptase data (HIV-1 cell line, CEMIIIB; 15 μg/ml, day 53)?
Answer: 1281

Question: What about the reverse transcriptase data (HIV-1 cell line, CEMIIIB; 15 μg/ml, day 60) of the same molecule?
Answer: 679

Question: What about the reverse transcriptase data (HIV-1 cell line, CEMIIIB; 15 μg/ml, day 67) of the same molecule?
Answer: 1251

Question: And the reverse transcriptase data (HIV-1 cell line, CEMIIIB; 15 μg/ml, day 71)?
Answer: 1241

Question: What about the reverse transcriptase data (HIV-1 cell line, CEMIIIB; 15 μg/ml, day 74) of the same molecule?
Answer: 1361

Question: And the reverse transcriptase data (HIV-1 cell line, CEMIIIB; 15 μg/ml, day 88)?
Answer: 1201

Question: What about the reverse transcriptase data (HIV-1 cell line, CEMIIIB; 15 μg/ml, day 95) of the same molecule?
Answer: 562

Question: And the reverse transcriptase data (HIV-1 cell line, CEMIIIB; 15 μg/ml, day 102)?
Answer: 1043

Question: What about the reverse transcriptase data (HIV-1 cell line, CEMIIIB; 15 μg/ml, day 109) of the same molecule?
Answer: 1036

Question: What about the reverse transcriptase data (HIV-1 cell line, CEMIIIB; 30 μg/ml, day 4) of the same molecule?
Answer: 1968

Question: What about the reverse transcriptase data (HIV-1 cell line, CEMIIIB; 30 μg/ml, day 11) of the same molecule?
Answer: 2145

Question: What about the reverse transcriptase data (HIV-1 cell line, CEMIIIB; 30 μg/ml, day 18) of the same molecule?
Answer: 554

Question: What about the reverse transcriptase data (HIV-1 cell line, CEMIIIB; 30 μg/ml, day 25) of the same molecule?
Answer: 436

Question: What about the reverse transcriptase data (HIV-1 cell line, CEMIIIB; 30 μg/ml, day 32) of the same molecule?
Answer: 712

Question: What about the reverse transcriptase data (HIV-1 cell line, CEMIIIB; 30 μg/ml, day 39) of the same molecule?
Answer: 520

Question: What about the reverse transcriptase data (HIV-1 cell line, CEMIIIB; 30 μg/ml, day 46) of the same molecule?
Answer: 281

Question: What about the reverse transcriptase data (HIV-1 cell line, CEMIIIB; 30 μg/ml, day 53) of the same molecule?
Answer: 543

Question: And the reverse transcriptase data (HIV-1 cell line, CEMIIIB; 30 μg/ml, day 60)?
Answer: 406

Question: And the reverse transcriptase data (HIV-1 cell line, CEMIIIB; 30 μg/ml, day 67)?
Answer: 391

Question: What about the reverse transcriptase data (HIV-1 cell line, CEMIIIB; 30 μg/ml, day 71) of the same molecule?
Answer: 281

Question: What about the reverse transcriptase data (HIV-1 cell line, CEMIIIB; 30 μg/ml, day 74) of the same molecule?
Answer: 651

Question: And the reverse transcriptase data (HIV-1 cell line, CEMIIIB; 30 μg/ml, day 88)?
Answer: 241

Question: What about the reverse transcriptase data (HIV-1 cell line, CEMIIIB; 30 μg/ml, day 95) of the same molecule?
Answer: 102

Question: And the reverse transcriptase data (HIV-1 cell line, CEMIIIB; 30 μg/ml, day 102)?
Answer: 256

Question: And the reverse transcriptase data (HIV-1 cell line, CEMIIIB; 30 μg/ml, day 109)?
Answer: 376

Question: What about the “reverse transcriptase data on continuation (in words)” value (HIV-1 cell line, CEMIIIB; run through 242 days) of the same molecule?
Answer: data remained consistent

Reference: patent publication US20030232851A1, “Viral treatment” (The Procter & Gamble Company, priority 1999, published 2003)
